From ChEMBL document CHEMBL1201862, “PubChem BioAssay data set” (2004)
Calls of active or inactive are those of the source.

Experiments:
[1] = biological target: T1, Short transient receptor potential channel 4 (Mus musculus, UniProt Q9QUQ5); test: block of DAMGO-driven TRPC4 calcium entry – cell-based, HEK293 TRPC4/mu-opioid, Fluo-4 calcium, dose response (AID 434942); assay type: functional;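 further: potency of inhibitors blocking the TRPC4 calcium response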
T1 sequence (Q9QUQ5 whole entry): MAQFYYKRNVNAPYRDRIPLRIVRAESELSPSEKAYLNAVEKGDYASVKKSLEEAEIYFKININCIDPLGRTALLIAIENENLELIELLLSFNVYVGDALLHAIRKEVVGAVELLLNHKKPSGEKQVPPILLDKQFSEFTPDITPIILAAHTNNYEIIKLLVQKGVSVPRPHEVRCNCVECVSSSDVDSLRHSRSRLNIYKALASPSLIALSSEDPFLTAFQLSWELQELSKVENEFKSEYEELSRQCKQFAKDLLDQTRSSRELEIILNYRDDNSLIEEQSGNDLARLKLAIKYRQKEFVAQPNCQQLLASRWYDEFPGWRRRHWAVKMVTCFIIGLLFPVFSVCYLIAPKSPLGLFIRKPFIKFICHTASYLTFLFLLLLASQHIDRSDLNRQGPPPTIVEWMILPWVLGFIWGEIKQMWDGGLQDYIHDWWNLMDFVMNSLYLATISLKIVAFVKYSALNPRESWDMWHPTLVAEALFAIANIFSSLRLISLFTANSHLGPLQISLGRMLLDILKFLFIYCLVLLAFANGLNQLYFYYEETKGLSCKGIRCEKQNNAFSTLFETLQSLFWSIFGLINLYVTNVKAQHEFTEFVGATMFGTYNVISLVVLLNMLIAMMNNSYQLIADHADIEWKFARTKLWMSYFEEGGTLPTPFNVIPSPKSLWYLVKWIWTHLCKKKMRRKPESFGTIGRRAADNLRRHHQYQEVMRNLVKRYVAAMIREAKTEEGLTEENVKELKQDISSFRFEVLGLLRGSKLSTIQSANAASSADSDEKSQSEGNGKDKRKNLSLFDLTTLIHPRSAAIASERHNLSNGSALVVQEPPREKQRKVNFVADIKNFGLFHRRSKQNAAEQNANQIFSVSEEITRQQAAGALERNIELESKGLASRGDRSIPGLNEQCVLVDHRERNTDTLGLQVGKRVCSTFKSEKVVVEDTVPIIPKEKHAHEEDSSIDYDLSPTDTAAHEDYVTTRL

[2] = biological target: T2, Sphingosine 1-phosphate receptor 4 (Homo sapiens, UniProt O95977); test: Late-stage fluorescence dose response cell-based assay to identify agonists of the Sphingosine 1-Phosphate Receptor 4 (S1P4): purchased compounds EC50. [Related pubchem assays (depositor defined):AID1509, AID1523, AID1563, AID1686, AID1701, AID1801]; assay type: functional
T2 sequence (O95977 whole entry): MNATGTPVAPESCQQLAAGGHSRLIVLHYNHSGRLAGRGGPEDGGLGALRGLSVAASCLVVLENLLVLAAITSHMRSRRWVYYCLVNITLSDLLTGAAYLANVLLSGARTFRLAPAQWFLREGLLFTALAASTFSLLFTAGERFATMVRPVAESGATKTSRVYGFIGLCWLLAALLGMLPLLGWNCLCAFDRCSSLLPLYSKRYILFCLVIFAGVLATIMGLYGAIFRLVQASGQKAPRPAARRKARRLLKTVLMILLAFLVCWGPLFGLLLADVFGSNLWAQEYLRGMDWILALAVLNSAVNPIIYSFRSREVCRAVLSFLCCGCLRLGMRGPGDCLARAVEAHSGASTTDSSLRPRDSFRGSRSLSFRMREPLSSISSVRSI

[3] = biological target: T3, Runt-related transcription factor 1/Core-binding factor subunit beta (Homo sapiens, UniProt Q01196+Q13951); test: disruptors of Runt domain/CBFb-SMMHC interaction – biochemical, FRET, Cerulean-Runt, Venus-CBFb-SMMHC, uHTS, […] (AID 1434); assay type: protein assay
[4] = biological target: Genome polyprotein (dengue virus type 2, UniProt P29990); test: flavivirus cap methylation enzyme inhibition – biochemical, confirmation dose response, primary screen (AID 588689); assay type: functional
[5] = biological target: T3, Runt-related transcription factor 1/Core-binding factor subunit beta; test: Runt domain/CBFb-SMMHC interaction disruptors – biochemical, TR-FRET (AID 1438); assay type: protein assay
[6] = viability of PTEN-deleted HCT116 cells – cell-based, HCT116 PTEN knockout, dose response (AID 1047); assay type: functional;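 further: HCT116 colon tumor cells with PTEN knocked out; cells exposed to compound for 60 hours before readout; potency for loss of cell viability measured by luminescence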
[7] = biological target: SUMO-activating enzyme (Homo sapiens, UniProt Q9UBT2); test: blockers of UBC9-mediated SUMO conjugation – biochemical, AlphaScreen, SUMOylation inhibitor project, confirmation (AID 2018); assay type: functional
[8] = biological target: Troponin, cardiac muscle (Homo sapiens, UniProt P19429+P45379+P63316); test: Fluorescence-based biochemical high throughput dose response assay for activators of the calcium sensitivity of cardiac Regulated Thin Filaments (RTF). [Related pubchem assays (depositor defined):AID493008, AID493018, AID504382, AID504383]; assay type: protein-complex assay
[9] = biological target: DNA dC->dU-editing enzyme APOBEC-3G (Homo sapiens, UniProt Q9HC16); assay type: functional;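 further: Dose-response counterscreen measuring inhibition of APOBEC3G DNA deaminase activity, run while confirming APOBEC3A inhibitors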
[10] = biological target: G-protein coupled receptor 55 (Homo sapiens, UniProt Q9Y2T6); test: inhibition of LPI-stimulated GPR55 beta-arrestin translocation – imaging, U2OS, beta-arrestin-GFP, LPI agonist, primary screen (AID 2013); assay type: functional;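 further: antagonist potency measured as reduced agonist-driven arrestin aggregation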
[11] = biological target: DNA dC->dU-editing enzyme APOBEC-3A (Homo sapiens, UniProt P31941); test: Dose Response confirmation of small molecule APOBEC3A DNA Deaminase Inhibitors via a fluorescence-based single-stranded DNA deaminase assay. [Related pubchem assays (depositor defined):AID493011, AID493024]; assay type: functional
[12] = biological target: Alkaline phosphatase, placental type (Homo sapiens, UniProt P05187); test: human placental alkaline phosphatase inhibition – biochemical, luminescence, confirmation (AID 1512); assay type: functional
[13] = biological target: T4, Leucine aminopeptidase (Plasmodium falciparum 3D7, UniProt Q8IL11); test: P. falciparum M17LAP inhibitors, primary screen, biochemical, fluorogenic H-Leu-NHMec substrate, 1536-well (AID 1619); assay type: functional
T4 sequence (Q8IL11 whole entry): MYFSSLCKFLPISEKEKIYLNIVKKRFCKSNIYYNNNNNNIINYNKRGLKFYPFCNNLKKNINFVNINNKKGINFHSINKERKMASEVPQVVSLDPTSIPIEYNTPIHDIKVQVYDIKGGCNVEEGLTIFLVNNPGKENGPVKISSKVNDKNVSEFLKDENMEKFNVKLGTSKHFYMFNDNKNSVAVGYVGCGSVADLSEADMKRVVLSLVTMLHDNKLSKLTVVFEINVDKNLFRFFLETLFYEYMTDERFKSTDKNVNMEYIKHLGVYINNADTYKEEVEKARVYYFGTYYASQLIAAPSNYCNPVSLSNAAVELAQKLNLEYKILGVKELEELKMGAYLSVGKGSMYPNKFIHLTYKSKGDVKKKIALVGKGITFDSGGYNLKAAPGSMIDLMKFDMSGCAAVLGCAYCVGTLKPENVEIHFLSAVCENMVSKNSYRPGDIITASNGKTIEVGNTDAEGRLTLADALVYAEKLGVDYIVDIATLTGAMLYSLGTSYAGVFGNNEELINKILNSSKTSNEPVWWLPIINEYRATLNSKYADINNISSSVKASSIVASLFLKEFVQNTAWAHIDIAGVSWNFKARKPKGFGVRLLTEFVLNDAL

[14] = biological target: T5, Mannose-6-phosphate isomerase (Homo sapiens, UniProt P34949); test: MPI inhibition at elevated mannose 6-phosphate – biochemical, fluorescence intensity, high mannose 6-phosphate, primary screen (AID 1220)
T5 sequence (P34949 whole entry): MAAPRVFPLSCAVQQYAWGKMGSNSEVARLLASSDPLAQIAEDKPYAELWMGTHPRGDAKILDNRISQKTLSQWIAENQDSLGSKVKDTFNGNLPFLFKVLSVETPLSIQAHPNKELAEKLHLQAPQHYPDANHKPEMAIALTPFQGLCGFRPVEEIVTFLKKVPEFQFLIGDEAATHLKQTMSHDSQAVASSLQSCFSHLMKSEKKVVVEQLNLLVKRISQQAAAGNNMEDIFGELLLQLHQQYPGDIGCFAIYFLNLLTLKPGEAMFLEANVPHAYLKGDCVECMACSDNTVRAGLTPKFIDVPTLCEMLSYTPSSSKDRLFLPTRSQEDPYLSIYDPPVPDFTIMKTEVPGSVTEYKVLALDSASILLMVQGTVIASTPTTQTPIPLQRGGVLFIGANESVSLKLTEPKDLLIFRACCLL

[15] = Luminescence Cell-Based Dose Retest to Confirm Inhibitors of Cancer Stem Cells. [Related pubchem assays (depositor defined):AID2717, AID2721]; assay type: functional; settings: Homo sapiens
[16] = biological target: SUMO E1/E2 (Homo sapiens, UniProt P63279+Q9UBE0+Q9UBT2); test: SAR analysis of SUMOylation using HTRF in an in-Vitro dose response assay. [Related pubchem assays (depositor defined):AID2006, AID2011, AID2018, AID2069, AID2658]; assay type: functional
[17] = biological target: T6, Voltage-gated N-type calcium channel alpha-1B subunit/Amyloid beta A4 precursor protein-binding family A member 1 (Homo sapiens, UniProt Q00975+Q02410); test: disruptors of Mint-PDZ/N-type channel peptide interaction – biochemical, HTRF, set 2, SAR follow-up (AID 434980); assay type: functional
[18] = biological target: T6, Voltage-gated N-type calcium channel alpha-1B subunit/Amyloid beta A4 precursor protein-binding family A member 1; test: disruptors of Mint-PDZ/N-type channel peptide interaction – biochemical, HTRF, SAR follow-up (AID 2489); assay type: functional
[19] = NIH-3T3 fibroblast cytotoxicity, dose response, cytotoxicity control, cell-based, fluorescence, Alamar Blue, secondary assay (AID 2327); assay type: functional;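 further: NIH-3T3 mouse fibroblasts cultured with fluconazole at 8 µg/mL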
[20] = biological target: T7, Bcl-2-like protein 10 (Homo sapiens, UniProt Q9HD36); test: Bcl-B/TR3 peptide binding disruption – biochemical, fluorescence polarization, FITC-TR3 peptide, selectivity assay for Bfl-1 inhibitor project, primary screen (AID 748);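 further: fluorescence polarization from a fluorescein-labelled TR3 peptide binding purified Bcl-B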
T7 sequence (Q9HD36 whole entry): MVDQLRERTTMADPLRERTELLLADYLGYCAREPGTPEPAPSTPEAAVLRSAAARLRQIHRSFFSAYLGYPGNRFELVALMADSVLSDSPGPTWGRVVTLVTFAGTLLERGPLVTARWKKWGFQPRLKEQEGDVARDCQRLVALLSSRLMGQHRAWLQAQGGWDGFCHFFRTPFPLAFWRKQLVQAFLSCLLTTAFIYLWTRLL

[21] = biological target: Estrogen receptor beta (Homo sapiens, UniProt Q92731); test: blockers of SRC-3 recruitment to ERβ – biochemical, ELISA, streptavidin-HRP readout, orthogonal assay, confirmation (AID 1060)
[22] = fluconazole-exposed Candida albicans growth modulators – fluorescence, retest, confirmation (AID 2467); assay type: functional, cell-based
[23] = biological target: CAAX prenyl protease 1 (Saccharomyces cerevisiae S288c, UniProt P47154); test: yeast CAAX protease Ste24 inhibition – biochemical, S. cerevisiae, plate reader, cherry-pick, dose response (AID 488815)

COc1cc2ccccc2c2c1CCCC2=O
EC50 [1]: 2.99 µM (active)

Cc1ccc(CNC(=O)C(C)OC(=O)c2c(C)nn(Cc3ccc(C)cc3)c2Cl)cc1 (stereo not given)
EC50 [2]: > 50 µM (inactive)

CCC1(C)Cc2c(sc3[nH]c(=O)[nH]c(=O)c23)CS1 (stereo not given)
IC50 [3]: 38.5 µM (active)
IC50 [4]: 88.7 µM (active)
IC50 [5]: 45.1 µM (active)

Cc1cc(NC(=O)Cn2c(=O)n(Cc3ccccc3)c(=O)c3ccccc32)no1
EC50 [6]: 35.9 µM (active)
IC50 [7]: 67.7 µM (active)

COc1ccc(/C=C2\SC(=S)N(CCCC(=O)Nc3ccccc3C(=O)O)C2=O)cc1OC
EC50 [8]: 12.9 µM (inactive)

COC(=O)C1=C(C)N(Cc2ccccc2)C(NCCc2cccnc2)=N[C@H]1c1ccccc1
IC50 [9]: 4.62 µM (active)
IC50 [10]: 1.08 µM (active)
IC50 [11]: 2.69 µM (active)

O=C(Nc1cc(N2CCOCC2)ncn1)NC1(C(F)(F)F)Oc2ccc(Cl)cc2O1 (stereo not given)
IC50 [12]: 10.4 µM (active)
IC50 [13]: 32.4 µM (active)
IC50 [14]: 18.1 µM (active)
AC50 [15]: 7.43 µM (active)

COc1ccccc1C(=O)NC(=O)COC(=O)c1cc(-c2ccco2)nc2ccccc12
IC50 [16]: 2.06 µM (active)
IC50 [17]: 3.41 µM (active)
IC50 [18]: 15.4 µM (active)

O=C(Cc1cnn(-c2ccccc2)c1)c1ccc(O)c(O)c1O
EC50 [19]: > 150 µM (inactive)
IC50 [12]: > 100 µM (inactive)
IC50 [14]: 4.69 µM (active)
IC50 [4]: 75.7 µM (active)
IC50 [20]: 39.5 µM (active)
IC50 [21]: 34.5 µM (not active)
EC50 [22]: > 38 µM (not active)

CCNC(=O)NC(=O)C(C)OC(=O)c1cc2c(C)nn(Cc3ccccc3)c2s1 (stereo not given)
EC50 [2]: > 50 µM (inactive)

CCOC(=O)c1sc2nc(C3CC3)cc(-c3ccc(F)cc3)c2c1N
AC50 [23]: 3.7 µM (active)

Cc1ccc(-n2c(C)cc(/C=N/NC(=O)Cn3c4ccccc4c(=O)c4ccccc43)c2C)cc1
IC50 [3]: 2.37 µM (active)
IC50 [5]: 13 µM (active)

CC1=CC(=C(C#N)c2nc3ccccc3s2)C=C(C)N1c1ccc(F)cc1
EC50 [8]: > 7.94 µM (active)
